The values that follow come from a melting point compilation (Tetko et al.; mined from patent text by program, amines drawn as free bases though some values may be those of a salt).

The structures appear in SMILES notation.

Molecule `O=C(N[C@@H](Cc1ccccc1)C(=O)N1CCS(=O)CC1)c1cc2cc(Cl)ccc2[nH]1` showed a melting point of 230 to 234 °C.

For `N#CC1(Nc2cccc(Cl)c2)CCN(C(=O)c2cc(C(F)(F)F)cc(C(F)(F)F)c2)CC1`, the melting point is 205 to 207 °C.

`Cc1nc(N2CCc3ccccc3CC2)c(C#N)c(=O)n1CC(F)(F)F`: the melting point was in the range of 108 to 110 °C.

`N#Cc1cc(NC(=O)c2cc3ccccc3s2)ccc1OC1CCN(Cc2ccccc2)CC1`: the melting point is 206 °C.

In turn, `O=C([C@@H]1O[C@H]1c1ccccc1)N(CC1CC1)[C@@H]1CCCC[C@H]1O` showed a melting point of 110 to 120 °C.

The molecule `CN(C)Cc1ccc(CSCCNC2=NS(=O)(=O)N=C2N(C)C)o1` had a melting point of 139 to 142 °C.

The molecule `CSc1ncc(CNc2ccccc2Cl)c(Nc2ccccc2)n1` returned a melting point of 131 to 132 °C.

The molecule `COc1ccc(N(C(=O)CNC(=O)Nc2cccc(C)c2)c2ccccc2)cc1` showed a melting point of 182 °C.

In turn, `Nc1ncc(-c2ccc(F)c3ccccc23)o1` came in with a melting point of 171 to 174 °C.

Consider `O=C(CBr)OCN1C(=O)NC(c2ccccc2)(c2ccccc2)C1=O`, for which the melting point was 179 to 183 °C.

`CCCCCCCCCCCCCCCCc1cc(S)c(Sc2nnc(SCC(=O)O)s2)cc1O` gave a melting point of 71 to 76 °C.

In turn, `CC(=O)NCCC1Cc2c(C)c(OCc3ccccc3)c(C)c(C)c2O1` (racemic) yielded a melting point of 138 to 139 °C.

With `O=C(NCC1C2(CCCC1(c1ccccc1)c1ccccc1)OCCO2)c1ccccc1` (racemic), the melting point worked out at 162 °C.

`CC(C)c1cccc(C(C)C)c1NC(=O)NCC1(c2ccc(-c3ccccc3)cc2)CCC1`: the melting point is 177 to 179 °C.

For `O[C@H]1c2cc(OCc3ccc4ccccc4c3)ccc2OC[C@H]1Oc1cccnc1` (relative stereo), the melting point lay within 156 to 157 °C.

`O=C(CCc1ccccc1)N[C@H](Cc1cccc(Oc2ccccc2)c1)[C@@H](O)c1ccc(F)cc1` (racemic) came in with a melting point of 91 to 93 °C.

As for `CC(=O)NCc1cccc(Nc2nccc(-c3sc(-c4cccs4)nc3C)n2)c1`, the melting point was in the range of 223 to 225 °C.

As to `CC1=CC=C[C@@H](O)[C@H]1O`, the melting point lay in the range of 56 to 57 °C.

Molecule `COc1ccc(-c2nc(O)c(-c3ccccc3)s2)cc1` registered a melting point of 218 to 221 °C.

`CC(=O)CN1C(=O)C(NC(=O)Nc2cccc(C)c2)N=C(C)c2cccc(C)c21` (configuration not stated) showed a melting point of 126 to 128 °C.

`CC1(C)CON(Cc2ccc(NC(=O)C3=C(C(=O)O)CCCC3)cc2Br)C1=O` displayed a melting point of 149 to 151 °C.

Molecule `Nc1ccc(-c2cc(=O)cc(N3CCOCC3)o2)cc1` yielded a melting point of 258 to 260 °C.

`CN(C)CCOc1c(-c2ccc(S(C)(=O)=O)cc2)cnn(-c2cccc(Cl)c2)c1=O`: the melting point was in the range of 110 to 113 °C.

`CSc1nc2sccc2c(=O)[nH]1`: the melting point is 232 to 235 °C.

`COc1cc2ncc3c(N)nc(C)cc3c2cc1OC` came in with a melting point of 244 to 248 °C.

Molecule `CSc1sc(-c2ccn(S(C)(=O)=O)n2)c2c1C(=O)CC(C)(C)C2` yielded a melting point of 193 to 195 °C.

`COC(=O)N(C)C1CN(C(=O)Nc2ccc(OC(F)(F)F)cc2)N=C1c1ccc(OC(F)F)cc1` (configuration not stated) came in with a melting point of 125 to 126 °C.

`O=CNC(Cc1ccccc1)C1CC(Cc2ccccc2)=NO1` (configuration not stated) displayed a melting point of 112 to 113 °C.

Molecule `CCOc1ccc(C=CC(=O)OC)cc1` displayed a melting point of 68 to 70 °C.

The molecule `CC(=O)N1CC(C)(C)c2cc3nc(C(F)(F)F)[nH]c3cc21` displayed a melting point of 290 to 291 °C.

`CC(O)c1nnc2n1-c1sc(Cl)cc1C(c1ccccc1Cl)=NC2` (configuration not stated) returned a melting point of 118 to 120 °C.

As for `O=C1Nc2ccccc2N(C(=O)CNCCc2ccccc2)C2CCC(Cc3ccccc3)C12` (configuration not stated), the melting point was in the range of 108 to 109 °C.

`COC(=O)c1ncsc1CCNC(=O)OCc1ccccc1` showed a melting point of 108 to 110 °C.

Consider `CN1Cc2c(C=O)ncn2-c2cccc(Cl)c2C1=O`, for which the melting point lay within 204 to 205 °C.

As for `Nc1nc2ccccc2c2c1ncn2CCOCc1ccncc1`, the melting point lay within 159 to 161 °C.

As to `C=CCNC(=O)N1CC(OCc2ccc(F)cc2)C1`, the melting point lay in the range of 97 to 99 °C.

For `CC(=O)Sc1c(F)c(F)c(C=O)c(F)c1F`, the melting point lay in the range of 86 to 87 °C.

In turn, `COc1cc(OC(C)(C)C(=O)O)c(-c2cccs2)cc1/C=C/C(=O)c1ccc(NS(C)(=O)=O)cc1` returned a melting point of 181 to 183 °C.

`COc1cc2c(cc1S(=O)(=O)c1ccc(Br)cc1)[C@@H](N1CCCC1=O)[C@H](O)C(C)(C)O2` (relative stereo) showed a melting point of 281 to 282 °C.

Regarding `COC(=O)c1cc(NC(C)=O)c(F)c(-c2ccc(Cl)c(OC)c2F)n1`, the melting point lay in the range of 189 to 191 °C.

On to `CN1CCC(c2c[nH]c3ccc(NC(=O)c4ccccn4)nc23)CC1`, for which the melting point was in the range of 221 to 223 °C.

In turn, `CCOc1cccc2cc(C(=O)c3ccc(Cl)cc3)oc12` displayed a melting point of 108 to 110 °C.

In the case of `Cc1cc(C)nc(NC(=O)NS(=O)(=O)c2ccccc2OS(=O)(=O)N(C)C)n1`, the melting point is 195 to 196 °C.

`COC1OCC[C@@H]1NC(=O)[C@H](CC(C)C)NC(=O)CNC(=O)C(C)(C)Oc1ccc2c(c1)Nc1ccccc1S2` (some centres not stated) displayed a melting point of 100 to 104 °C.

As for `NC(=O)c1c(N)n[nH]c1N1CCN(Cc2ccccc2)CC1`, the melting point is 234 to 236 °C.

`CC(=O)NC1CCc2cc3c(cc21)CCC3` (configuration not stated) registered a melting point of 257 to 259 °C.

For `COc1ccc([N+](=O)[O-])c(NC(=O)OC(C)(C)C)c1`, the melting point was 112 to 114 °C.

On to `COC(=O)C1Cc2ccccc2CC(C(=O)OC)C1=O` (configuration not stated), for which the melting point is 100 to 110 °C.

Molecule `O=C(O)CCSC1c2ccccc2COc2ccc(OCc3ccc4cc(Cl)ccc4n3)cc21` (configuration not stated) displayed a melting point of 178 to 180 °C.

`CCOc1cc(Nc2cccc3c2C(=O)N(C2CCC(=O)NC2=O)C3=O)ccc1OC` (configuration not stated): the melting point is 162 to 164 °C.

Molecule `CC(O)C1C(=O)N2C(C(=O)OCc3ccccc3)=CCC12` (configuration not stated) registered a melting point of 94 to 99 °C.

Molecule `CC(C)(C)c1cc2c(c(C(C)(C)C)c1O)CC1(CCSCC1)O2` came in with a melting point of 209 °C.

With `CC1CCc2ccc(OCC3CO3)cc2O1` (configuration not stated), the melting point is 67 to 69 °C.

Molecule `COc1cc(Nc2nccc(-c3ccc(NCCCN4CCOCC4)nc3)n2)cc(OC)c1OC` gave a melting point of 165 to 166 °C.

The molecule `COCCOc1ccc2c(=O)c(C#N)c[nH]c2c1` displayed a melting point greater than 250 °C.

In turn, `c1ccc2c(c1)SCCc1c-2n(Cc2ccc(OCCCN3CCCCC3)cc2)c2ccccc12` gave a melting point of 70 to 71 °C.

The molecule `Cc1sc2c(c1C(=O)c1ccc([N+](=O)[O-])cc1)CCC2C(=O)O` (configuration not stated) returned a melting point of 156 to 158 °C.

`Nc1nc(-c2ccccn2)nc2ccccc12` showed a melting point of 173 to 174 °C.

As for `CC1(C)OC(C=Cc2ccccn2)=CC1=O`, the melting point is 87.5 to 89 °C.

The molecule `NC(=NO)C1CCN(C(=O)OCc2ccccc2)CC1` registered a melting point of 111 to 113 °C.

As to `CN(C)S(=O)(=O)c1cc2c(c(Cl)c1Cl)OC(C(=O)OCC(=O)OC(c1ccccc1)c1ccccc1)C2` (configuration not stated), the melting point was in the range of 56 to 58 °C.

For `CC(=O)c1cn2c3c(cccc13)CCC2`, the melting point was in the range of 106 to 108 °C.

One may read the melting point as the temperature of the solid-liquid transition.
